Columns and labels:
SRS-A production = experiment: Inhibition of SRS-A production and release in sensitized guinea-pig lung fragments (egg albumin antigen); assay type: cell-based, quinea-pig; conditions: lung fragments sensitized with egg albumin, compound dissolved in ethanol or dimethyl sulfoxide, read-out: Inhibitory effect on SRS-A production (%); for inhibition at 10 µM: concentration 10 μM
Procedure: Further, we investigated the effect of the present compound (I) on the production and release of the slow reacting substance of anaphylaxis (hereinafter, SRS-A) which has been mentioned as a main factor in asthma. Thus, in accordance with the method of Orange and Moore (J. Immunol., 116, 392-397, 1976), the present compound (I) was added to a quinea-pig lung fragments sensitized with egg albumin as the antigen, and the amount of SRS-A produced and released as a consequence was assayed by the method of Brocklehurst (J. Physiol., 151, 416-435, 1960).
^(1) The compound was added as dissolved in ethanol or dimethyl
^(2) The inhibitory effect on SRSA production was expressed as the %
inhibition of production and release of SRSA.

succinate oxidase = experiment: Mitochondrial electron-transport activity determined as succinate oxidase activity in ubiquinone-depleted enzyme preparations; assay type: biochemical; conditions: level of addition 10 n moles; ubiquinone-depleted enzyme preparation; control 19.34 ± 1.42
Procedure: ^(1) Ubiquinonedepleted enzyme preparations were prepared in
accordance with Lester and Fleischer (Biochem. Biophys. Acta., 47,358-377
1961). The electrontransport activity was determined based on succinate

Row | Compound | inhibition at 1 µM (SRS-A production; concentration 1 μM) | inhibition at 10 µM (SRS-A production) | Succinate oxidase activity [oxygen consumption per mg enzyme protein during 1 minute (n atoms oxygen)] (succinate oxidase)
1 | COC1=C(OC)C(=O)C(CCCCCCCCCCCCC(=O)O)=C(C)C1=O [R:H, n:12, 6-(12-carboxydodecyl)-2,3-dimethoxy-5-methyl-1,4-benzoquinone] | 60 ± 3.3% | 87.2 ± 5.5% | 96.05 n atoms oxygen
2 | COC1=C(OC)C(=O)C(CCCCCCCCCCCCCCCCCC(=O)O)=C(C)C1=O [R:H, n:17, 6-(17-carboxyheptadecyl)-2,3-dimethoxy-5-methyl-1,4-benzoquinone] |  | 82.8 ± 4.4% | 112.05 n atoms oxygen
3 | COC1=C(OC)C(=O)C(CCCCCCCCCCCCCCCCCCCCCC(=O)O)=C(C)C1=O [R:H, n:21, 6-(21-carboxyheneicosyl)-2,3-dimethoxy-5-methyl-1,4-benzoquinone] |  | 80.5 ± 0.5% | 
4 | COC(=O)CCCCCCCCCCCCC1=C(C)C(=O)C(OC)=C(OC)C1=O [n:12 R:CH3, 2,3-dimethoxy-6-(12-methoxycarbonyldodecyl)-5-methyl-1,4-benzoquinone] |  |  | 146.10 n atoms oxygen

Source: patent US4495104A, “Quinone carboxylic acids and ester derivatives” (Takeda Chemical Industries, Ltd., priority 1980, dated 1985)
